The values below come from ChEMBL document CHEMBL1145882, “High affinity, bioavailable 3-amino-1,4-benzodiazepine-based gamma-secretase inhibitors” (Bioorg Med Chem Lett, 2003).

What is called IC50 is the concentration that gives 50% inhibition. Read a high IC50 as weaker potency in that assay. Broadly, the AUC is the area under the concentration-time curve, a measure of exposure. Read a low AUC as less exposure. As usually defined, the Cmax is the highest concentration seen after dosing. A word on the half-life: it is how long it takes for the measured level to halve. The term bioavailability denotes dose-corrected exposure relative to a reference, in per cent.

Data set [1] concerns the target Gamma-secretase. The data set is described as follows: In vitro inhibition of gamma secretase. The class given is protein-complex assay, Homo sapiens.
A short description of data set [2]: Area under curve at 4 hr in rat. The format is ADME, organism-based. On the set-up: time < 4 hr. To be noted: in vivo.
Data set [3] in a line: Cmax value at 5 mg/kg po in rat. The class given is ADME, organism-based. On the set-up: dose 5 mg/kg, route oral. The conditions noted are these: in vivo.
Data set [4] can be described thus: Cmax value at 1 mg/kg po in rat. Details: dose 1 mg/kg, route oral. The format is ADME, organism-based. To be noted: in vivo.
A short description of data set [5]: Half life period was determined. The class given is ADME. To be noted: rat.
Data set [6] in a line: Cmax value at 5 mg/kg po was determined in rat. To be noted: in vivo. The class given is ADME, organism-based. Details: dose 5 mg/kg, route oral.
A short description of data set [7]: Bioavailability in rat. The format is ADME, organism-based. To be noted: in vivo.

Consider `C[C@@H](Cc1ccc(F)c(F)c1)C(=O)NC1N=C(c2ccc(C(N)=O)cc2)c2ccccc2N(C)C1=O` (stereo partly specified), for which, in data set [1], inhibition was half-maximal at 0.49 nM (IC50).

Consider `C[C@@H](Cc1ccc(F)c(F)c1)C(=O)N[C@H]1N=C(c2ccc3c(c2)CCCC3=O)c2ccccc2N(C)C1=O`, for which, in data set [1], half-maximal inhibition (IC50) was put at 2.2 nM.

`C[C@@H](Cc1ccc(F)c(F)c1)C(=O)N[C@H]1N=C(c2ccc3c(c2)CCN(C)C3=O)c2ccccc2N(C)C1=O` came in with an IC50 in data set [1] of 1880 nM. This IC50 is about 850-fold higher than that of the molecule before.

For `C[C@@H](Cc1ccc(F)c(F)c1)C(=O)N[C@H]1N=C(c2ccc3c(c2)OC(F)(F)O3)c2ccccc2N(C)C1=O`, in data set [1], the midpoint of inhibition, the IC50, lay at 28 nM.

The molecule `C[C@@H](Cc1ccc(F)c(F)c1)C(=O)N[C@H]1N=C(c2ccc3c(=O)ccoc3c2)c2ccccc2N(C)C1=O` returned an IC50 in data set [1] of 1.2 nM. Compared with the last molecule, the IC50 is about 23-fold lower.

Consider `C[C@@H](Cc1ccc(F)c(F)c1)C(=O)N[C@H]1N=C(c2ccc3c(c2)OCO3)c2ccccc2N(C)C1=O`, for which it took 13.2 nM to reach half-maximal inhibition in data set [1] (IC50). This molecule returned an AUC at 4 h in data set [2] of 0.09 µM·h. In data set [3], this molecule displayed a peak concentration (Cmax) of 40 nM.

As to `C[C@@H](Cc1ccc(F)c(F)c1)C(=O)N[C@H]1N=C(c2ccc3c(c2)CCNC3=O)c2ccccc2N(C)C1=O`, the peak concentration (Cmax) in data set [4] came out at 2 nM. This molecule also showed a half-inhibitory concentration (IC50) in data set [1] of 0.3 nM. Besides, the AUC at 4 h in data set [2] was less than 0.004 µM·h.

Turning to `C[C@@H](Cc1ccc(F)c(F)c1)C(=O)N[C@H]1N=C(c2ccc3c(=O)[nH]ccc3c2)c2ccccc2N(C)C1=O`, in data set [1], inhibition was half-maximal at 0.2 nM (IC50).

As for `C[C@@H](Cc1ccc(F)c(F)c1)C(=O)N[C@H]1N=C(c2ccc3c(c2)OCO3)c2ccccc2N(CC(=O)N(C)C)C1=O`, in data set [1], the IC50 stood at 5.5 nM.

In data set [5], `C[C@@H](Cc1ccc(F)c(F)c1)C(=O)N[C@H]1N=C(c2ccc3c(c2)OCO3)c2ccccc2N(CC(N)=O)C1=O` had a half-life of 1.4 h. This molecule came in with an IC50 in data set [1] of 13.2 nM. In data set [6], this molecule came in with a Cmax of 900 nM. Further, in data set [7], the bioavailability was 22%. This molecule also showed an area under the curve (AUC) at 4 h in data set [2] of 2.9 µM·h.

As for `CC(=O)CCN1C(=O)[C@@H](NC(=O)[C@@H](C)Cc2ccc(F)c(F)c2)N=C(c2ccc3c(c2)OCO3)c2ccccc21`, the 50% inhibitory concentration (IC50) in data set [1] came out at 3.7 nM.

In turn, `COC(=O)CN1C(=O)[C@@H](NC(=O)[C@@H](C)Cc2ccc(F)c(F)c2)N=C(c2ccc3c(c2)OCO3)c2ccccc21` had a concentration for half-maximal inhibition (IC50) in data set [1] of 12.7 nM.

`C[C@@H](Cc1ccc(F)c(F)c1)C(=O)N[C@H]1N=C(c2ccc3c(c2)OCO3)c2ccccc2NC1=O` showed an IC50 in data set [1] of 1.8 nM. This IC50 lies about 7.1-fold lower than the previous one.

Molecule `C[C@@H](Cc1ccc(F)c(F)c1)C(=O)N[C@H]1N=C(c2ccc3c(c2)OCO3)c2ccccc2N(CCO)C1=O` gave an IC50 in data set [1] of 0.9 nM.

In data set [1], `C[C@@H](Cc1ccc(F)c(F)c1)C(=O)N[C@H]1N=C(c2ccc3c(c2)CCC(=O)N3)c2ccccc2N(C)C1=O` gave a half-maximal inhibitory concentration (IC50) of 101 nM.

The molecule `CNC(=O)CN1C(=O)[C@@H](NC(=O)[C@@H](C)Cc2ccc(F)c(F)c2)N=C(c2ccc3c(c2)OCO3)c2ccccc21` returned an IC50 in data set [1] of 1.8 nM.

On to `C[C@@H](Cc1ccc(F)c(F)c1)C(=O)N[C@H]1N=C(c2ccc3c(c2)OCCO3)c2ccccc2N(C)C1=O`, for which the IC50 in data set [1] was found to be 4.7 nM.

In data set [1], `C[C@@H](Cc1ccc(F)c(F)c1)C(=O)N[C@H]1N=C(c2ccc3c(c2)CCC3=O)c2ccccc2N(C)C1=O` came in with an IC50 of 3.6 nM.
